Assay results taken from patent publication US9302999B2, “Substituted triazoles as herbicides” (E. I. DU PONT DE NEMOURS AND COMPANY, priority 2012, dated 2016).

Assays:
Assay type in all cases: in vivo
[1] = system: bromegrass, downy (downy bromegrass, Bromus tectorum); test: Test C pre-/postemergence: bromegrass, downy
Outline: (§1)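 Preemergence on seeds in loam/sand, postemergence on 2–18 cm (1–4-leaf) plants in peat-based medium; compounds in non-phytotoxic solvent with surfactant. After 13–15 days in greenhouse, visual rating versus controls, 0 (no effect) to 100 (complete control).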

[2] = system: pigweed (Amaranthus retroflexus); test: Test D pre-/postemergence: pigweed
Outline: (§2)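 Species were sown in silt loam and sprayed preemergence, or grown in peat/vermiculite medium and sprayed postemergence at the 1- to 4-leaf stage (2–18 cm), with compounds in a surfactant-containing solvent. Injury was visually rated against untreated controls after 14–21 days, on a 0 (no effect) to 100 (complete control) scale.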

[3] = system: foxtail, green (green foxtail, Setaria viridis); test: Test C pre-/postemergence: foxtail, green
Outline: as §1

[4] = system: Russian thistle (Salsola kali); test: Test C pre-/postemergence: Russian thistle; settings: Preemergence
Outline: as §1

[5] = system: galium (catchweed bedstraw, Galium aparine); test: Test D pre-/postemergence: galium
Outline: as §2

[6] = system: oilseed rape (Brassica napus); test: Test D pre-/postemergence: oilseed rape
Outline: as §2

[7] = system: windgrass (Apera spica-venti); test: Test C postemergence: windgrass
Outline: (§3)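 Crop and weed plants were grown in peat-vermiculite medium and treated postemergence at the 1- to 4-leaf stage (2-18 cm tall). After 13-15 days in a greenhouse, each species was rated visually against untreated controls on a 0-100 scale (0 no effect, 100 complete control).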

[8] = system: barley (winter barley, Hordeum vulgare); test: Test C postemergence: barley
Outline: as §3

[9] = system: lambsquarters (Chenopodium album); test: Test D pre-/postemergence: lambsquarters
Outline: as §2

[10] = system: surinam grass (Brachiaria decumbens); test: Test C pre-/postemergence: surinam grass
Outline: as §1

[11] = Postemergence, 31 g ai/ha, scale 0 to 100 (0 no effect, 100 complete control)
[12] = Postemergence, 62 g ai/ha, scale 0 to 100 (0 no effect, 100 complete control)
[13] = Postemergence, 125 g ai/ha, scale 0 to 100, 0 no effect, 100 complete control
[14] = Postemergence, 250 g ai/ha, scale 0 to 100
[15] = Preemergence, 31 g ai/ha, scale of 0 to 100, 0 is no effect, 100 is complete control
[16] = Preemergence, 62 g ai/ha, scale of 0 to 100, 0 is no effect, 100 is complete control
[17] = Preemergence, 125 g ai/ha, scale 0 to 100, 0 no effect, 100 complete control
[18] = Preemergence, 250 g ai/ha, scale 0 to 100, 0 no effect, 100 complete control
[19] = Postemergence, 8 g ai/ha, scale 0 to 100
[20] = Postemergence, 16 g ai/ha, scale 0 to 100
[21] = 125 g ai/ha, scale 0 to 100, 0 no effect, 100 complete control
[22] = 250 g ai/ha, scale 0 to 100, 0 no effect, 100 complete control
[23] = 31 g ai/ha, scale 0 to 100 (0 no effect, 100 complete control)
[24] = 62 g ai/ha, scale 0 to 100 (0 no effect, 100 complete control)
[25] = Preemergence, 31 g ai/ha, scale 0 (no effect) to 100 (complete control)
[26] = Postemergence, 250 g ai/ha, scale 0 to 100 (0 no effect, 100 complete control)
[27] = Preemergence, 16 g ai/ha, scale 0 to 100 (0 no effect, 100 complete control)
[28] = Preemergence, 31 g ai/ha, scale 0 to 100 (0 no effect, 100 complete control)
[29] = Preemergence, 62 g ai/ha, scale 0 to 100
[30] = Preemergence, 125 g ai/ha, scale 0 to 100
[31] = Preemergence, 250 g ai/ha, scale 0 to 100

Compound: Cc1nn(-c2ccc(F)c(F)c2)nc1Oc1ccnc(C(F)(F)F)c1 [Compound 145]
- Plant response rating, Bromegrass, Downy [1, 11]: 5
- Plant response rating, Bromegrass, Downy [1, 12]: 10
- Plant response rating, Bromegrass, Downy [1, 13]: 20
- Plant response rating, Bromegrass, Downy [1, 14]: 25
- Plant response rating, Bromegrass, Downy [1, 15]: 5
- Plant response rating, Bromegrass, Downy [1, 16]: 20
- Plant response rating, Bromegrass, Downy [1, 17]: 70
- Plant response rating, Bromegrass, Downy [1, 18]: 85
- Plant response rating: Pigweed [2, 11]: 95
- Plant response rating: Pigweed [2, 12]: 100
- Plant response rating: Pigweed [2, 13]: 100
- Plant response rating, Pigweed [2, 19]: 20
- Plant response rating, Pigweed [2, 20]: 70
- Plant response rating, Foxtail, Green [3, 11]: 98
- Plant response rating, Foxtail, Green [3, 12]: 100
- Plant response rating, Foxtail, Green [3, 13]: 100
- Plant response rating, Foxtail, Green [3, 14]: 100
- Plant response rating, Foxtail, Green [3, 15]: 90
- Plant response rating, Foxtail, Green [3, 16]: 90
- Plant response rating, Foxtail, Green [3, 17]: 90
- Plant response rating, Foxtail, Green [3, 18]: 90
- Plant response rating, Russian Thistle ([4]; 31 g ai/ha, scale of 0 to 100, 0 is no effect, 100 is complete control): 0
- Plant response rating, Russian Thistle [4, 21]: 90
- Plant response rating, Russian Thistle [4, 22]: 95
- Plant response rating: Galium [5, 11]: 35
- Plant response rating: Galium [5, 12]: 40
- Plant response rating: Galium [5, 13]: 70
- Plant response rating, Galium [5, 19]: 5
- Plant response rating, Galium [5, 20]: 30
- Plant response rating: Oilseed Rape [6, 11]: 50
- Plant response rating: Oilseed Rape [6, 12]: 70
- Plant response rating: Oilseed Rape [6, 13]: 100
- Plant response rating, Oilseed Rape [6, 19]: 0
- Plant response rating, Oilseed Rape [6, 20]: 50
- Plant response rating, Windgrass [7, 23]: 50
- Plant response rating, Windgrass [7, 24]: 70
- Plant response rating, Windgrass [7, 21]: 90
- Plant response rating, Windgrass ([7]; 250 g ai/ha, scale 0 to 100): 90
- Plant response rating, Barley [8, 23]: 15
- Plant response rating, Barley [8, 24]: 20
- Plant response rating, Barley [8, 21]: 35
- Plant response rating, Barley ([8]; 250 g ai/ha, scale 0 to 100): 45
- Plant response rating: Lambsquarters [9, 11]: 90
- Plant response rating: Lambsquarters [9, 12]: 100
- Plant response rating: Lambsquarters [9, 13]: 100
- Plant response rating, Lambsquarters [9, 19]: 10
- Plant response rating, Lambsquarters [9, 20]: 25
- Plant response rating, Surinam Grass [10, 11]: 25
- Plant response rating, Surinam Grass [10, 12]: 30
- Plant response rating, Surinam Grass [10, 13]: 60
- Plant response rating, Surinam Grass [10, 14]: 75
- Plant response rating, Surinam Grass [10, 15]: 35
- Plant response rating, Surinam Grass [10, 16]: 55
- Plant response rating, Surinam Grass [10, 17]: 100
- Plant response rating, Surinam Grass [10, 18]: 100

Compound: CCOc1nn(-c2ccc(F)cc2)nc1Cc1ccnc(C(F)F)c1 [Compound 195]
- Plant response rating, Bromegrass, Downy [1, 11]: 15
- Plant response rating, Bromegrass, Downy [1, 12]: 30
- Plant response rating, Bromegrass, Downy [1, 13]: 50
- Plant response rating, Bromegrass, Downy [1, 14]: 60
- Plant response rating, Bromegrass, Downy [1, 25]: 15
- Plant response rating, Bromegrass, Downy [1, 16]: 45
- Plant response rating, Bromegrass, Downy [1, 17]: 85
- Plant response rating, Bromegrass, Downy [1, 18]: 90
- Plant response rating: Pigweed [2, 11]: 65
- Plant response rating: Pigweed [2, 12]: 75
- Plant response rating: Pigweed [2, 13]: 80
- Plant response rating: Pigweed [2, 26]: 95
- Plant response rating, Pigweed [2, 20]: 60
- Plant response rating, Pigweed [2, 27]: 60
- Plant response rating, Pigweed [2, 28]: 60
- Plant response rating, Pigweed [2, 29]: 60
- Plant response rating, Pigweed [2, 30]: 100
- Plant response rating, Pigweed [2, 31]: 95
- Plant response rating, Foxtail, Green [3, 11]: 100
- Plant response rating, Foxtail, Green [3, 12]: 100
- Plant response rating, Foxtail, Green [3, 13]: 100
- Plant response rating, Foxtail, Green [3, 26]: 100
- Plant response rating, Foxtail, Green [3, 25]: 90
- Plant response rating, Foxtail, Green [3, 16]: 90
- Plant response rating, Foxtail, Green [3, 17]: 90
- Plant response rating, Foxtail, Green [3, 18]: 90
- Plant response rating, Russian Thistle ([4]; 31 g ai/ha, scale 0 (no effect) to 100 (complete control)): 90
- Plant response rating, Russian Thistle ([4]; 62 g ai/ha, scale of 0 to 100, 0 is no effect, 100 is complete control): 90
- Plant response rating, Russian Thistle [4, 21]: 90
- Plant response rating, Russian Thistle [4, 22]: 90
- Plant response rating: Galium [5, 11]: 30
- Plant response rating: Galium [5, 12]: 50
- Plant response rating: Galium [5, 13]: 75
- Plant response rating: Galium [5, 26]: 80
- Plant response rating, Galium [5, 20]: 20
- Plant response rating, Galium [5, 27]: 0
- Plant response rating, Galium [5, 28]: 0
- Plant response rating, Galium [5, 29]: 10
- Plant response rating, Galium [5, 30]: 30
- Plant response rating, Galium [5, 31]: 80
- Plant response rating: Oilseed Rape [6, 11]: 85
- Plant response rating: Oilseed Rape [6, 12]: 95
- Plant response rating: Oilseed Rape [6, 13]: 100
- Plant response rating: Oilseed Rape [6, 26]: 100
- Plant response rating, Oilseed Rape [6, 20]: 70
- Plant response rating, Oilseed Rape [6, 27]: 0
- Plant response rating, Oilseed Rape [6, 28]: 0
- Plant response rating, Oilseed Rape [6, 29]: 0
- Plant response rating, Oilseed Rape [6, 30]: 10
- Plant response rating, Oilseed Rape [6, 31]: 20
- Plant response rating, Windgrass [7, 23]: 55
- Plant response rating, Windgrass [7, 24]: 80
- Plant response rating, Windgrass [7, 21]: 95
- Plant response rating, Windgrass ([7]; 250 g ai/ha, scale 0 to 100 (0 no effect, 100 complete control)): 100
- Plant response rating, Barley [8, 23]: 15
- Plant response rating, Barley [8, 24]: 20
- Plant response rating, Barley [8, 21]: 35
- Plant response rating, Barley ([8]; 250 g ai/ha, scale 0 to 100): 35
- Plant response rating: Lambsquarters [9, 11]: 75
- Plant response rating: Lambsquarters [9, 12]: 80
- Plant response rating: Lambsquarters [9, 13]: 95
- Plant response rating: Lambsquarters [9, 26]: 100
- Plant response rating, Lambsquarters [9, 20]: 60
- Plant response rating, Lambsquarters [9, 27]: 0
- Plant response rating, Lambsquarters [9, 28]: 0
- Plant response rating, Lambsquarters [9, 29]: 0
- Plant response rating, Lambsquarters [9, 30]: 30
- Plant response rating, Lambsquarters [9, 31]: 75
- Plant response rating, Surinam Grass [10, 11]: 30
- Plant response rating, Surinam Grass [10, 12]: 50
- Plant response rating, Surinam Grass [10, 26]: 60
- Plant response rating, Surinam Grass [10, 25]: 55
- Plant response rating, Surinam Grass [10, 16]: 75
- Plant response rating, Surinam Grass [10, 17]: 85
- Plant response rating, Surinam Grass [10, 18]: 98
